In patent publication US20230257396A1, “MACROCYCLES AND THEIR USE” (BLOSSOMHILL THERAPEUTICS, INC., priority 2020, published 2023):

Columns and labels:
Assay in all cases: KINOMEscan kinase binding assay (Eurofins/DiscoveRx), % Ctrl
kinases [1] = target: T1, kinases (Homo sapiens, UniProt P07949, V804L); settings: 1 μM; RET(V804L)
T1 construct: purchased Eurofins/DiscoveRx; host or cells: E. coli BL21-derived host (T7 phage display) for most kinases; HEK-293 for the rest
Procedure, shortened: (§1)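 Read-out is qPCR of kinase eluted from ligand-coated streptavidin beads after 1 h room-temperature competition with test compound. Values are % Ctrl at the tested concentration, lower meaning tighter binding.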

kinases [2] = target: T2, kinases (Homo sapiens, UniProt P09619); settings: 1 μM; PDGFRB
T2 construct: purchased Eurofins/DiscoveRx; host or cells: E. coli BL21-derived host (T7 phage display) for most kinases; HEK-293 for the rest
T2 sequence (P09619 33-1106): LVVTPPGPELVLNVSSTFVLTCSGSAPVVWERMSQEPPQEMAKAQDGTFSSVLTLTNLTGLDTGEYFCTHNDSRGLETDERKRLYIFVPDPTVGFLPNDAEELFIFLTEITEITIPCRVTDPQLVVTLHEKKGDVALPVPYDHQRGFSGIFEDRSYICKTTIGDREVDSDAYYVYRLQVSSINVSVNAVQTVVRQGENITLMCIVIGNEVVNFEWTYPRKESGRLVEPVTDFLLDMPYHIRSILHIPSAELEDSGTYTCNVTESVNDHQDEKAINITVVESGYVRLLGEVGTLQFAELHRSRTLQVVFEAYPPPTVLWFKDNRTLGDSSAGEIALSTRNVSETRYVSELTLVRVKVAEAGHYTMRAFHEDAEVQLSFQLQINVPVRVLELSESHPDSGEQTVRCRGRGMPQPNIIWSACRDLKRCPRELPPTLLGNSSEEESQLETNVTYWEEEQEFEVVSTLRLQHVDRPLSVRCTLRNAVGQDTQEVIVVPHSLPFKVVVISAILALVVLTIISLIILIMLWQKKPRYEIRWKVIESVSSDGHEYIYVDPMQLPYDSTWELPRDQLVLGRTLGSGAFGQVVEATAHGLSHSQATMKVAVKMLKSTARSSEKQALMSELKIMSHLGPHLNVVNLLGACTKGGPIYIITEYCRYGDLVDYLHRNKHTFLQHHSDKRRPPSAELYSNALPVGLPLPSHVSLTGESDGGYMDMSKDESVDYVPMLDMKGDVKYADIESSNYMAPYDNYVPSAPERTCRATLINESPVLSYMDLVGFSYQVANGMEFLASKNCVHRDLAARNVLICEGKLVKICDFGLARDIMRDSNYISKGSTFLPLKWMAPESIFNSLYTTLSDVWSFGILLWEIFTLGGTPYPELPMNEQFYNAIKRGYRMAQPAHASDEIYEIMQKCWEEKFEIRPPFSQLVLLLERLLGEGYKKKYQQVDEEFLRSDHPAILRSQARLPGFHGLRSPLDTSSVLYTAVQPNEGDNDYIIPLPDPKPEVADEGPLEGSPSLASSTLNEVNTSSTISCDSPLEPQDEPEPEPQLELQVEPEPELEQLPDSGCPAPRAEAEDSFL
Procedure, shortened: as §1

kinases [3] = target: T3, kinases (Homo sapiens, UniProt P00519, F317I); settings: 1 μM
T3 construct: purchased Eurofins/DiscoveRx; host or cells: E. coli BL21-derived host (T7 phage display) for most kinases; HEK-293 for the rest
Procedure, shortened: as §1

kinases [4] = target: T4, kinases (Homo sapiens, UniProt P36888); settings: 1 μM
T4 construct: purchased Eurofins/DiscoveRx; host or cells: E. coli BL21-derived host (T7 phage display) for most kinases; HEK-293 for the rest
T4 sequence (P36888 27-993): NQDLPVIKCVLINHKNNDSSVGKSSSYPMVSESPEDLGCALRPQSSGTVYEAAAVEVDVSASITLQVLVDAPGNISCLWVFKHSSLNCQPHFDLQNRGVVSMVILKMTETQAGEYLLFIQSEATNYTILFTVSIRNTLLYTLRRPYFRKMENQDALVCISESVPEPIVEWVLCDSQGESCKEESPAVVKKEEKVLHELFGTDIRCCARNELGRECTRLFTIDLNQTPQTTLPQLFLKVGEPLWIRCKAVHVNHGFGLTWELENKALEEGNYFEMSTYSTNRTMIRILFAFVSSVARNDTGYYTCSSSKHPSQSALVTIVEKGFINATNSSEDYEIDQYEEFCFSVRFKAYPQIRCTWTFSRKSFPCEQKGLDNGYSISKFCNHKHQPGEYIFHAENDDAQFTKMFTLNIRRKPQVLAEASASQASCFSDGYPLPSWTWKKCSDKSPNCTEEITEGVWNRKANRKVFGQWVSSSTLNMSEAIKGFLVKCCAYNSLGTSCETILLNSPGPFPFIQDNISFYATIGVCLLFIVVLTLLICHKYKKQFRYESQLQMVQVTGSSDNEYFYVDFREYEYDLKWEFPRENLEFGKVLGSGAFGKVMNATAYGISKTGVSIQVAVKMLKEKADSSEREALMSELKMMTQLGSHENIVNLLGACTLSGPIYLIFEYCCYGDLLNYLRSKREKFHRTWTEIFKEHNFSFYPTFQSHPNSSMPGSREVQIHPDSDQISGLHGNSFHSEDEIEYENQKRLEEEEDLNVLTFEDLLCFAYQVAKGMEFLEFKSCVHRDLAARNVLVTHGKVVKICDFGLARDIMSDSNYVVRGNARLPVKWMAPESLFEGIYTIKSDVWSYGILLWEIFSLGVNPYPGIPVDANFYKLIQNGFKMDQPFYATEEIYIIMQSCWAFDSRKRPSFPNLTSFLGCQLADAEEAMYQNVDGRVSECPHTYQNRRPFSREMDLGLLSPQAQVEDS
Procedure, shortened: as §1

kinases [5] = target: T5, kinases (Homo sapiens, UniProt P00519); settings: 1 μM
T5 construct: purchased Eurofins/DiscoveRx; host or cells: E. coli BL21-derived host (T7 phage display) for most kinases; HEK-293 for the rest
Procedure, shortened: as §1

kinases [6] = target: T6, kinases (Homo sapiens, UniProt P00519, Y253F); settings: 1 μM; ABL1(Y253F)-phosphorylated
T6 construct: purchased Eurofins/DiscoveRx; host or cells: E. coli BL21-derived host (T7 phage display) for most kinases; HEK-293 for the rest
Procedure, shortened: as §1

kinases [7] = target: T7, kinases (Homo sapiens, UniProt P00533, L858R); settings: 1 μM; EGFR(L858R)
T7 construct: purchased Eurofins/DiscoveRx; host or cells: E. coli BL21-derived host (T7 phage display) for most kinases; HEK-293 for the rest
Procedure, shortened: as §1

kinases [8] = target: T8, kinases (Homo sapiens, UniProt P00519, H396P); settings: 1 μM
T8 construct: purchased Eurofins/DiscoveRx; host or cells: E. coli BL21-derived host (T7 phage display) for most kinases; HEK-293 for the rest
Procedure, shortened: as §1

kinases [9] = target: T9, kinases (Homo sapiens, UniProt P00533, L858R/T790M); settings: 1 μM; EGFR(L858R, T790M)
T9 construct: purchased Eurofins/DiscoveRx; host or cells: E. coli BL21-derived host (T7 phage display) for most kinases; HEK-293 for the rest
Procedure, shortened: as §1

kinases [10] = target: T10, kinases (Homo sapiens, UniProt P10721, L576P); settings: 1 μM; KIT(L576P)
T10 construct: purchased Eurofins/DiscoveRx; host or cells: E. coli BL21-derived host (T7 phage display) for most kinases; HEK-293 for the rest
T10 sequence (P10721 26-976 L576P): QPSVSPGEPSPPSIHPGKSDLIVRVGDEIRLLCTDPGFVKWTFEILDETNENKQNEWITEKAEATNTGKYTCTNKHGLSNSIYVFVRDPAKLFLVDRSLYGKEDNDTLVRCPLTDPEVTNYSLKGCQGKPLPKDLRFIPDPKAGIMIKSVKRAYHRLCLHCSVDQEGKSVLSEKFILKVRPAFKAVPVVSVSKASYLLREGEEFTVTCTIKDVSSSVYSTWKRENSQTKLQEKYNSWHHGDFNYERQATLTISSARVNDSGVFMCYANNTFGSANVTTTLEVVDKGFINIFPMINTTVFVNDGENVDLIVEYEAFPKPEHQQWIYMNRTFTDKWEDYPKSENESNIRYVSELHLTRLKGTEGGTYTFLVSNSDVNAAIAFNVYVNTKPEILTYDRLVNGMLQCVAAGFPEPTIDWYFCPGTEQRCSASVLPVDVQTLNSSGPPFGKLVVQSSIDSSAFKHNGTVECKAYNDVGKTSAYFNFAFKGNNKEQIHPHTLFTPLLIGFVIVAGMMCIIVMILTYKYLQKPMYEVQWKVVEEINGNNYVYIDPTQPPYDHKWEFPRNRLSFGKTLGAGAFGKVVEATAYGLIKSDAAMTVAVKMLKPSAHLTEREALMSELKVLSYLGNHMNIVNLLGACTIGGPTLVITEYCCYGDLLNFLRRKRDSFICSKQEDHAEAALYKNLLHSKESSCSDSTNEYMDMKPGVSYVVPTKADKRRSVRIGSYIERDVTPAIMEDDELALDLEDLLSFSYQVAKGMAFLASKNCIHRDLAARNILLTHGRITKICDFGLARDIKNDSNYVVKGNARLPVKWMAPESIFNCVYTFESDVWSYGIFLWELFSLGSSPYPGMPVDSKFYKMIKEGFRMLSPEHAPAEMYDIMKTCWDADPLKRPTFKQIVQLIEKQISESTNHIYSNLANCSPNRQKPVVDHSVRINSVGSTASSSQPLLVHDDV
Procedure, shortened: as §1

kinases [11] = target: T11, kinases (Homo sapiens, UniProt P10721, V559D/V654A); settings: 1 μM; KIT(V559D, V654A)
T11 construct: purchased Eurofins/DiscoveRx; host or cells: E. coli BL21-derived host (T7 phage display) for most kinases; HEK-293 for the rest
T11 sequence (P10721 26-976 V559D/V654A): as the sequence (P10721 26-976 L576P) above, with V534D, P551L, V629A counted along it
Procedure, shortened: as §1

kinases [12] = target: T12, kinases (Homo sapiens, UniProt P35916); settings: 1 μM; FLT4
T12 construct: purchased Eurofins/DiscoveRx; host or cells: E. coli BL21-derived host (T7 phage display) for most kinases; HEK-293 for the rest
T12 sequence (P35916 25-1363): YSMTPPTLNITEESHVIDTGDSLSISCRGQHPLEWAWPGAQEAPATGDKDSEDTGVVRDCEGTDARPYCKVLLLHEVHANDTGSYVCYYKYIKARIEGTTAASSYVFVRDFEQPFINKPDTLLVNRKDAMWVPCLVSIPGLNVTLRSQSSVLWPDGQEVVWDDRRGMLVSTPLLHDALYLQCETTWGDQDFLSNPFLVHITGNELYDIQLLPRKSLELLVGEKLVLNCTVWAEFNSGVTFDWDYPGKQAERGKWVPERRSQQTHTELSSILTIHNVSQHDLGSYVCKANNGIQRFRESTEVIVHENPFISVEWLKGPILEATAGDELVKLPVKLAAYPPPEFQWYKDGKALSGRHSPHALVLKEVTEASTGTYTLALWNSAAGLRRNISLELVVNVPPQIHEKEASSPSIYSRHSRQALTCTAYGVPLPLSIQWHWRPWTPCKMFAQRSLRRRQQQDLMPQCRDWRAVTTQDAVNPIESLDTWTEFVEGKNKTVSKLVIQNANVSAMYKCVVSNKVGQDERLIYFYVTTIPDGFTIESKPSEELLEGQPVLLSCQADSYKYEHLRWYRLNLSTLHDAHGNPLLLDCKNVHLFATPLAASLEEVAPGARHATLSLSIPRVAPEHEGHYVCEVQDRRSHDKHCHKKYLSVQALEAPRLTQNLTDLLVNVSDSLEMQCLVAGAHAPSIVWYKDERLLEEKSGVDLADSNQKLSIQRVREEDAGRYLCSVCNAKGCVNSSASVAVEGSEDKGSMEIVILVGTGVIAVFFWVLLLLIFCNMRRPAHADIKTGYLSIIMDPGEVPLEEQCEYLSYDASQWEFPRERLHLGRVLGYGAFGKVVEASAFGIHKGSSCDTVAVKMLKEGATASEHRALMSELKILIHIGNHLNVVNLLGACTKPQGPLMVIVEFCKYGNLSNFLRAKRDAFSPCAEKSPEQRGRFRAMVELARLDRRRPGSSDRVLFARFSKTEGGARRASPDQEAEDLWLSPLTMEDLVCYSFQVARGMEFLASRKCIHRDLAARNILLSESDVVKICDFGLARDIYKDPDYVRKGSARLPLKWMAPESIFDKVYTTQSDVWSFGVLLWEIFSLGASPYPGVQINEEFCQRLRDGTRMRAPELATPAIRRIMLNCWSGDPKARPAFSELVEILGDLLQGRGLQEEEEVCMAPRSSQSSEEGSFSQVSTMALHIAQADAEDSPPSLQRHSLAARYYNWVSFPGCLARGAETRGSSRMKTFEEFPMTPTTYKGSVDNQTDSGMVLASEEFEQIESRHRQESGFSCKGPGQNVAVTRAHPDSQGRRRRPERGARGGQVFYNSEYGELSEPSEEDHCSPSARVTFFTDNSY
Procedure, shortened: as §1

kinases [13] = target: T13, kinases (Homo sapiens, UniProt P00533); settings: 1 μM; EGFR
T13 construct: purchased Eurofins/DiscoveRx; host or cells: E. coli BL21-derived host (T7 phage display) for most kinases; HEK-293 for the rest
Procedure, shortened: as §1

kinases [14] = target: T14, kinases (Homo sapiens, UniProt P07949, M918T); settings: 1 μM; RET(M918T)
T14 construct: purchased Eurofins/DiscoveRx; host or cells: E. coli BL21-derived host (T7 phage display) for most kinases; HEK-293 for the rest
T14 sequence (P07949 29-1114 M918T): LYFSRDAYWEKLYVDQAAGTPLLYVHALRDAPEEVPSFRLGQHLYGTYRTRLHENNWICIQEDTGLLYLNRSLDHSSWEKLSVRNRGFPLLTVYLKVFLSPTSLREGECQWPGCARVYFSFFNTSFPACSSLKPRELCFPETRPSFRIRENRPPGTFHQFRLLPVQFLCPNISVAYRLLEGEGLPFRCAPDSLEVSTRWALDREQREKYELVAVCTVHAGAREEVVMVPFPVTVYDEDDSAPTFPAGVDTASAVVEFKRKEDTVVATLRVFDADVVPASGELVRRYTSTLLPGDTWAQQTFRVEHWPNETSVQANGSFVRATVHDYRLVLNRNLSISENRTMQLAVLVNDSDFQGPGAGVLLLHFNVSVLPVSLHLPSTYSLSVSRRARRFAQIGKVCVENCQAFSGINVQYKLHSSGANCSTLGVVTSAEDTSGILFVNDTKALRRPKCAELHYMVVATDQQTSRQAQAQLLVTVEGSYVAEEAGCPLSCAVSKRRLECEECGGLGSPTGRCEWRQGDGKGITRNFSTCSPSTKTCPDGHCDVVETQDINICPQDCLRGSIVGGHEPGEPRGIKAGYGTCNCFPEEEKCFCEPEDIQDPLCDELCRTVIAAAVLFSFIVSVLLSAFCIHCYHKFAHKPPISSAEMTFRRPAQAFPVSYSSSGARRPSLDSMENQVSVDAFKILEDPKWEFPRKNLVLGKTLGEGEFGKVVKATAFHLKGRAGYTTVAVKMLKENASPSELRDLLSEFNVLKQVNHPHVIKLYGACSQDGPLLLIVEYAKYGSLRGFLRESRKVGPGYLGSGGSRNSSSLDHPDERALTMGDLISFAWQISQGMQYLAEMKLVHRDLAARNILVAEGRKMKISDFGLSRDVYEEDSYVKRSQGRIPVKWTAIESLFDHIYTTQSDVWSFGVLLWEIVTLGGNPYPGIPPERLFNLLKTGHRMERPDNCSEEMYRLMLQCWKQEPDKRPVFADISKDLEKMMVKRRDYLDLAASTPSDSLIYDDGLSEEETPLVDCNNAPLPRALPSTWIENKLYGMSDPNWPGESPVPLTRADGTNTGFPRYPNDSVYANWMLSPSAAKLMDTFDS
Procedure, shortened: as §1

kinases [15] = target: T15, kinases (Homo sapiens, UniProt P00533, L861Q); settings: 1 μM; EGFR(L861Q)
T15 construct: purchased Eurofins/DiscoveRx; host or cells: E. coli BL21-derived host (T7 phage display) for most kinases; HEK-293 for the rest
Procedure, shortened: as §1

T1 sequence (P07949 29-1114 V804L): as the sequence (P07949 29-1114 M918T) above, with V776L, T890M counted along it

Row | % Ctrl, RET(V804L) (kinases [1]) [% Ctrl] | % Ctrl, PDGFRB (kinases [2]) [% Ctrl] | % Ctrl, ABL1(F317I)-nonphosphorylated (kinases [3]) [% Ctrl] | % Ctrl, ABL1(F317I)-phosphorylated (kinases [3]) [% Ctrl] | % Ctrl, FLT3 (kinases [4]) [% Ctrl] | % Ctrl, FLT3-autoinhibited (kinases [4]) [% Ctrl] | % Ctrl, ABL1-nonphosphorylated (kinases [5]) [% Ctrl] | % Ctrl, ABL1-phosphorylated (kinases [5]) [% Ctrl] | % Ctrl, ABL1(Y253F)-phosphorylated (kinases [6]) [% Ctrl] | % Ctrl, EGFR(L858R) (kinases [7]) [% Ctrl] | % Ctrl, ABL1(H396P)-nonphosphorylated (kinases [8]) [% Ctrl] | % Ctrl, ABL1(H396P)-phosphorylated (kinases [8]) [% Ctrl] | % Ctrl, EGFR(L858R, T790M) (kinases [9]) [% Ctrl] | % Ctrl, KIT(L576P) (kinases [10]) [% Ctrl] | % Ctrl, KIT(V559D, V654A) (kinases [11]) [% Ctrl] | % Ctrl, FLT4 (kinases [12]) [% Ctrl] | % Ctrl, EGFR (kinases [13]) [% Ctrl] | % Ctrl, RET(M918T) (kinases [14]) [% Ctrl] | % Ctrl, EGFR(L861Q) (kinases [15]) [% Ctrl] | Structure (SMILES)
1 | 43 | 71 | 22 | 89 | 77 | 96 | 0 | 25 | 54 | 98 | 0.3 | 46 | 100 | 87 | 67 | 75 | 98 | 59 | 100 | Cc1cc2c([nH]1)/C=C1\C(=O)Nc3ccc(cc31)O[C@@H](C)COCCN(C)C2=O [Ex. 92, [10S,16a(17)Z]-2,5,10-trimethyl-6,7,9,10-tetrahydro-1H-12,14-(ethanediylidene)dipyrrolo[3,2-i:3′,4′-l][1,4,7]dioxazacyclopentadecine-4,16(5H,15H)-dione]
2 | 95 | 98 | 100 | 100 | 93 | 100 | 90 | 93 | 91 | 9 | 100 | 98 | 100 | 100 | 100 | 95 | 95 | 91 | 80 | Cc1cc2c([nH]1)/C=C1\C(=O)Nc3cnc(nc31)N(C)CCCOCCN(C)C2=O [Ex.71, [17a(18)Z]-2,5,12-trimethyl-6,7,9,10,11,12-hexahydro-1H-13,15-(azenometheno)dipyrrolo[3,2-f:3′,4′-i][1,4,11,13]oxatriazacyclohexadecine-4,17(5H,16H)-dione]
3 | 100 | 98 | 68 | 94 | 99 | 77 | 53 | 90 | 80 | 97 | 64 | 89 | 98 | 100 | 100 | 91 | 61 | 95 | 90 | Cc1cc2c([nH]1)/C=C1\C(=O)Nc3ccc(cc31)-c1ccnn1CCNCCNC2=O [Ex. 43, [19a(20)Z]-2-methyl-5,6,7,8,9,10-hexahydro-15,17-(ethanediylidene)pyrazolo[1,5-g]dipyrrolo[3,4-k:2′,3′-n][1,4,7]triazacyclohexadecine-4,19(1H,18H)-dione]
